According to patent publication EP4007494B1, “METHOD OF IMPROVING COLD STRESS TOLERANCE AND CROP SAFETY” (Bayer CropScience LLC, priority 2019, dated 2021):
Like-named read-outs stand apart in the source and are kept apart here.

Tested on: canola
Conditions: for Average Relative Yield: relative to PROSPER EVERGOL

## O=C1C=C(N(Cc2ccc(Cl)nc2)CC(F)F)CO1 [Flupyradifurone, flupyradifurone]
Flupyradifurone 5 g per kg seed, alone or + QST713 1 × 10^6 CFU per seed
  Average Relative Yield: 102.0%
Flupyradifurone 10 g per kg seed
  Average Relative Yield: 100.5%
In vivo
  Average Relative Stand Density: 83.2%
  Average Vigor Rating: 4.2
  Relative Delay in Emergence: 3.5 days
  average relative stand density: decreased
  delay in emergence: significant delay in emergence
